Data set [1] concerns PaTu-T cells. The data set can be described thus: SRB antiproliferative assay, PaTu-T. To be noted: for Cell growth percentage: 10 μM, 72 h exposure; for IC50: Homo sapiens, 72 h, mean ± SEM, read-out: Half-maximal inhibitory concentration (IC50). It counts as cell-based, human. On the procedure: (§1) The cytotoxic activity of the nortopsentin derivatives 3b, 3e, 4c, 5b, and 6c on pancreatic cancer cells (BxPC-3, Panc-1, Suit-2, Capan-1, PaTu-T, primary PDAC-3 and resistant Panc-1-GR cells) was determined by the sulforhodamine B (SRB) chemosensitivity assay, as described previously. Cells were plated in 96-well flat-bottom plates at final concentrations ranging from 3000–5000 cells/well in 100 µL of medium. After a 24 h pre-incubation period, cells were treated with the compounds at nine screening concentrations (from 0.1 μM to 40 μM) in triplicate and incubated at 37 °C for 72 h. After the treatment, cells were fixed with 25 µL of cold 50% trichloroacetic acid (TCA) for each well and incubated at 4 °C for 1 h. Afterwards, plates were washed five times with demi-water and air-dried overnight. Then, the plates were stained with 50 µL of 0.4% SRB solution in 1% acetic acid for 15 min. The excess stain was rinsed off by placing the plates under running 1% acetic acid and allowed to dry at room temperature overnight. SRB staining was rinsed with 150 µL tris(hydroxymethyl)aminomethane solution pH = 8.8 (TRIS-base), and the optical density (OD) was read at 492 nm. Each assay was performed in triplicate and assays were repeated at least three times. The comparison of the average optical density of the growth in control wells with that in the sample wells allowed the estimation of the percentage of cell growth, using the following equation: % Cell Growth = (mean ODcompound − mean ODday zero plate)/(mean ODcells − mean ODday zero plate) × 100
(§2) The results obtained were adjusted by the day zero plate (wells containing cells growing for only 24 h) and normalized by the control cells (wells with untreated cells) to obtain the rate of viable cells.

The test system of data set [2] is Suit-2 cells. The data set can be described thus: SRB antiproliferative assay, Suit-2. It counts as cell-based, human. To be noted: for IC50: Homo sapiens, Suit-2, 72 h, mean ± SEM, read-out: Half-maximal inhibitory concentration (IC50); for Cell growth percentage: Suit-2, 10 μM, 72 h exposure. On the procedure:
as §1, §2
On the technique in general: Sulforhodamine B stains cellular protein and so reports cell mass.

Data set [3] has as its system Panc-1 cells. In words: SRB antiproliferative assay, Panc-1. Particulars: for IC50: Homo sapiens, Panc-1, 72 h, mean ± SEM, read-out: Half-maximal inhibitory concentration (IC50); for Cell growth percentage: Panc-1, 10 μM, 72 h exposure. The data set is classed as cell-based, human. Here is the method: as §1, §2
In data set [4] the test system is BxPC-3 cells. In words: SRB antiproliferative assay, BxPC-3. The data set is classed as cell-based, human. To be noted: for Cell growth percentage: BxPC-3, 10 μM, 72 h exposure; for IC50: Homo sapiens, BxPC-3, 72 h, mean ± SEM, read-out: Half-maximal inhibitory concentration (IC50). Here is the method:
as §1, §2

The subject of data set [5] is BxPC-3 cells. In words: Scratch wound-healing assay, BxPC-3. It counts as cell-based, human. To be noted: BxPC-3, 8 h, 4 × IC50, untreated = 100% wound closure. Here is the method: Cell migration was assessed using a wound-healing assay, as described previously. A total of 5 × 10^4 cells/well were seeded in a 96-well plate, to form a confluent monolayer. Scratches were created in confluent cell layers using the sterile scratch tool. The detached cells following scratch induction were removed and new medium was added to the wells. Cells were next treated with compounds 3b and 5b at a concentration of 4 × IC50. Cells growing in a complete medium were maintained at 37 °C with a supply of 5% CO2/95% air atmosphere and 100% relative humidity. The progress of wound closure was observed and documented at various time points (0th, 4th, 8th, 20th, and 24th h) using phase-contrast microscopy. Pictures of the plates were taken using the Universal Grab 6.3 software (DCILabs) from a computer connected to a Leica microscope with a JAI TMC-1327 camera.
The percentage of migration was calculated using the following equation:%Migration = (Width of the wound at T = 0 − Width of the wound at T = X)/(Width of the wound at T = 0) × 100

Data set [6] relates to Panc-1-GR cells. The data set can be described thus: SRB antiproliferative assay, gemcitabine-resistant Panc-1-GR. The data set is classed as cell-based, human. To be noted: for Cell growth percentage: 10 μM, 72 h exposure; for IC50: Homo sapiens, 72 h, mean ± SEM, read-out: Half-maximal inhibitory concentration (IC50). Here is the method:
as §1, §2

For data set [7], the system named is PDAC-3 cells. In words: SRB antiproliferative assay, primary culture PDAC-3. The data set is classed as cell-based, human. To be noted: for IC50: Homo sapiens, PDAC-3, 72 h, mean ± SEM, read-out: Half-maximal inhibitory concentration (IC50); for Cell growth percentage: PDAC-3, 10 μM, 72 h exposure. Here is the method:
as §1, §2

For data set [8], the system named is PDAC cells. In words: SRB antiproliferative assay, whole PDAC panel. The data set is classed as cell-based. Particulars: Homo sapiens; seven PDAC models, 72 h; read-out: IC50 values, range over the PDAC cell panel. On the procedure: as §1, with “The comparison of the average optical density of the growth in control wells with that in the sample wells allowed the estimation of the percentage of cell growth, using the following equation: % Cell Growth = (mean ODcompound − mean ODday zero plate)/(mean ODcells − mean ODday zero plate) × 100” left out

The subject of data set [9] is Capan-1 cells. In words: SRB antiproliferative assay, Capan-1. The data set is classed as cell-based, human. Particulars: for Cell growth percentage: Capan-1, 10 μM, 72 h exposure; for IC50: Homo sapiens, Capan-1, 72 h, mean ± SEM, read-out: Half-maximal inhibitory concentration (IC50). Here is the method: as §1, §2

The record followed here is publication PMC10381170, “1,3,4-Oxadiazole and 1,3,4-Thiadiazole Nortopsentin Derivatives against Pancreatic Ductal Adenocarcinoma: Synthesis, Cytotoxic Activity, and Inhibition of CDK1” (Marine Drugs, 2023).

What is called melting point is the temperature of the solid-liquid transition.

Compound `Cn1cc(-c2nnc(-c3ccccc3)o2)c2cccnc21` [4b, 1-methyl-3-(5-phenyl-1,3,4-oxadiazol-2-yl)-7-azaindole] returned a melting point of 201 °C.

As for `Cn1cc(-c2nnc(-c3cn(C)c4ncccc34)o2)c2cc(F)ccc21` [3c, 3-[5-(5-fluoro-1-methyl-1H-indol-3-yl)-1,3,4-oxadiazol-2-yl]-1-methyl-7-azaindole], the melting point was found to be 268 °C.

`Cn1cc(-c2nnc(-c3ccccc3)s2)c2cc(Br)cnc21` [6d, 5-bromo-1-methyl-3-(5-phenyl-1,3,4-thiadiazol-2-yl)-7-azaindole] returned a melting point of 188 °C.

`Cn1cc(-c2nnc(-c3cn(C)c4ncccc34)s2)c2cc(Br)ccc21` [5c, 3-[5-(5-bromo-1-methyl-1H-indol-3-yl)-1,3,4-thiadiazol-2-yl]-1-methyl-7-azaindole]: the melting point was found to be 292 °C.

With `Cn1cc(-c2nnc(-c3ccccc3)s2)c2cccnc21` [6b, 1-methyl-3-(5-phenyl-1,3,4-thiadiazol-2-yl)-7-azaindole], the melting point was found to be 191 °C.

`Cn1cc(-c2nnc(-c3c[nH]c4ncccc34)o2)c2ccccc21` [3a, 3-[5-(1-methyl-1H-indol-3-yl)-1,3,4-oxadiazol-2-yl]-7-azaindole] displayed a melting point of 302 °C.

Compound `Cn1cc(-c2nnc(-c3cn(C)c4ncc(Br)cc34)s2)c2ccccc21` [5f, 5-bromo-1-methyl-3-[5-(1-methyl-1H-indol-3-yl)-1,3,4-thiadiazol-2-yl]-7-azaindole] showed a melting point of 233 °C.

Consider `Cn1cc(-c2nnc(-c3cn(C)c4ncccc34)s2)c2ccccc21` [5b, 1-methyl-3-[5-(1-methyl-1H-indol-3-yl)-1,3,4-thiadiazol-2-yl]-7-azaindole], for which the melting point came out at 244 °C. In [1], the Cell growth percentage was determined as 27.73% and the IC50 was determined as 3.4 ± 0.06 µM. Further, in data set [2], the IC50 turned out to be 1.9 ± 0.27 µM and the Cell growth percentage came out at 19.46%. Further, in [3], the IC50 was determined as 3.5 ± 0.01 µM and the Cell growth percentage stood at 15.68%. In data set [4], the Cell growth percentage is listed as 32.88% and the IC50 stood at 2.7 ± 0.68 µM. The “percentage of cells migrating” value in [5] was found to be 66%. In data set [6], the Cell growth percentage was determined as 40.65% and the IC50 is 9.8 ± 0.05 µM. In data set [7], the IC50 was determined as 10.6 ± 0.04 µM and the Cell growth percentage came to 55.90%. Moreover, the IC50 in data set [8] fell in the range of 1.9 to 10.6 µM. Besides, in data set [9], the Cell growth percentage was determined as 30.86% and the IC50 is 3.3 ± 0.61 µM.

Regarding `Cn1cc(-c2nnc(-c3ccccc3)o2)c2cc(Br)cnc21` [4d, 5-bromo-1-methyl-3-(5-phenyl-1,3,4-oxadiazol-2-yl)-7-azaindole], the melting point turned out to be 236 °C.

Turning to `Cn1cc(-c2nnc(-c3cn(C)c4ncc(Br)cc34)o2)c2ccccc21` [3e, 5-bromo-1-methyl-3-[5-(1-methyl-1H-indol-3-yl)-1,3,4-oxadiazol-2-yl]-7-azaindole], the melting point was found to be 244 °C. Besides, the Cell growth percentage in data set [1] was 72.33%. In [2], the IC50 turned out to be 9.4 ± 4.3 µM and the Cell growth percentage stood at 54.94%. This compound also displayed a Cell growth percentage in data set [3] of 61.96%. In data set [4], the Cell growth percentage worked out at 58.64%. For the same compound, the IC50 in [7] amounted to 23 ± 0.06 µM. Further, the Cell growth percentage in [9] is listed as 59.84%.

Compound `Cn1cc(-c2nnc(-c3cn(C)c4ncc(Br)cc34)s2)c2cc(F)ccc21` [5h, 5-bromo-3-[5-(5-fluoro-1-methyl-1H-indol-3-yl)-1,3,4-thiadiazol-2-yl]-1-methyl-7-azaindole] displayed a melting point of 290 °C.

`Cn1cc(-c2nnc(-c3cn(C)c4ncccc34)o2)c2cc(Br)ccc21` [3d, 3-[5-(5-bromo-1-methyl-1H-indol-3-yl)-1,3,4-oxadiazol-2-yl]-1-methyl-7-azaindole] showed a melting point of 277 °C.

The compound `Brc1cnc2[nH]cc(-c3nnc(-c4ccccc4)s3)c2c1` [6c, 5-bromo-3-(5-phenyl-1,3,4-thiadiazol-2-yl)-7-azaindole] gave a melting point of 308 °C. Besides, in data set [1], the Cell growth percentage came out at 56.09% and the IC50 is 3.8 ± 1.8 µM. In data set [2], the IC50 amounted to 4.1 ± 0.9 µM and the Cell growth percentage worked out at 29.80%. For the same compound, in data set [3], the IC50 turned out to be 11.5 ± 1.2 µM and the Cell growth percentage was found to be 83.68%. The Cell growth percentage in [4] was found to be 54.59%. In data set [7], this compound yielded a Cell growth percentage of 87.84%. For the same compound, in data set [9], the Cell growth percentage stood at 76.76% and the IC50 came to 12.6 ± 1.3 µM.

`c1ccc(-c2nnc(-c3c[nH]c4ncccc34)o2)cc1` [4a, 3-(5-phenyl-1,3,4-oxadiazol-2-yl)-7-azaindole] registered a melting point of 272 °C.

The compound `Cn1cc(-c2nnc(-c3cn(C)c4ncc(Br)cc34)o2)c2cc(F)ccc21` [3g, 5-bromo-3-[5-(5-fluoro-1-methyl-1H-indol-3-yl)-1,3,4-oxadiazol-2-yl]-1-methyl-7-azaindole] yielded a melting point of 310 °C.

Turning to `Cn1cc(-c2nnc(-c3cn(C)c4ncccc34)s2)c2cc(F)ccc21` [5d, 3-[5-(5-fluoro-1-methyl-1H-indol-3-yl)-1,3,4-thiadiazol-2-yl]-1-methyl-7-azaindole], the melting point was 240 °C.

On to `Cn1cc(-c2nnc(-c3cn(C)c4ncc(Br)cc34)s2)c2cc(Br)ccc21` [5g, 5-bromo-3-[5-(5-bromo-1-methyl-1H-indol-3-yl)-1,3,4-thiadiazol-2-yl]-1-methyl-7-azaindole], for which the melting point came out at 275 °C.

`COc1ccc2c(c1)c(-c1nnc(-c3cn(C)c4ncccc34)s1)cn2C` [5e, 3-[5-(5-methoxy-1-methyl-1H-indol-3-yl)-1,3,4-thiadiazol-2-yl]-1-methyl-7-azaindole] displayed a melting point of 200 °C.

`Cn1cc(-c2nnc(-c3cn(C)c4ncc(Br)cc34)o2)c2cc(Br)ccc21` [3f, 5-bromo-3-[5-(5-bromo-1-methyl-1H-indol-3-yl)-1,3,4-oxadiazol-2-yl]-1-methyl-7-azaindole] gave a melting point of 275 °C.

Regarding `Cn1cc(-c2nnc(-c3c[nH]c4ncccc34)s2)c2ccccc21` [5a, 3-[5-(1-methyl-1H-indol-3-yl)-1,3,4-thiadiazol-2-yl]-7-azaindole], the melting point was determined as 246 °C.

Compound `c1ccc(-c2nnc(-c3c[nH]c4ncccc34)s2)cc1` [6a, 3-(5-phenyl-1,3,4-thiadiazol-2-yl)-7-azaindole] registered a melting point of 249 °C.

On to `Brc1cnc2[nH]cc(-c3nnc(-c4ccccc4)o3)c2c1` [4c, 5-bromo-3-(5-phenyl-1,3,4-oxadiazol-2-yl)-7-azaindole], for which the melting point is 275 °C. In addition, in data set [1], the Cell growth percentage worked out at 31.22% and the IC50 was found to be 9.7 ± 0.17 µM. Further, the Cell growth percentage in data set [2] came to 60.18%. In data set [3], the IC50 came to 13.4 ± 3.2 µM and the Cell growth percentage was determined as 74.33%. For the same compound, in data set [4], the Cell growth percentage was found to be 21.13% and the IC50 was determined as 3.3 ± 2.4 µM. In data set [6], the Cell growth percentage is reported as 98.62% and the IC50 came to 10.8 ± 1.4 µM. In data set [7], the Cell growth percentage was found to be 96.60%. In [9], the Cell growth percentage was found to be 75.17% and the IC50 is 10.8 ± 0.67 µM.
